The results in this text go back to paper PMC9137900, “Engineering Collariella virescens Peroxygenase for Epoxides Production from Vegetable Oil” (Antioxidants, 2022).

Structures are written as SMILES. Substitutions are numbered along the chain they refer to.

Common to all, as to type: biochemical
Test [1] addresses T1, rCviUPO (native, non-mutated recombinant CviUPO) (Achaetomiella virescens, UniProt Z9FBJ6W4Y2).
T1 construct: codon-optimized gene in pET23a, expressed in E. coli as active cytosolic enzyme without purification tag; heme-thiolate (EC 1.11.2.1); purified by cation exchange and Superdex 75
T1 sequence (Z9FBJ6W4Y2 1-226): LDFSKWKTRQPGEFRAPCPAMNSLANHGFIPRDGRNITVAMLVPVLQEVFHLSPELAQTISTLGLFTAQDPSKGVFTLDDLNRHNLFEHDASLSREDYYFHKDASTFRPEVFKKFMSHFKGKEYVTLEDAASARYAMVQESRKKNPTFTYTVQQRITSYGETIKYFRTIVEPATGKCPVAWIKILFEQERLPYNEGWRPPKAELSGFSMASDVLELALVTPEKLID
Briefly: GC-MS quantification of oxygenated products, […] min reactions. To be noted: 24 mM H2O2, 50 mM phosphate pH 7, 20% acetone.

In test [2] the target is T2, rCviUPO (native, non-mutated recombinant CviUPO) (Achaetomiella virescens, UniProt Z9FBJ6W4Y2, F87A).
T2 construct: codon-optimized gene in pET23a, expressed in E. coli as active cytosolic enzyme without purification tag; heme-thiolate (EC 1.11.2.1); purified by cation exchange and Superdex 75
T2 sequence (Z9FBJ6W4Y2 1-226 F87A): T1 sequence (Z9FBJ6W4Y2 1-226) with F87A
The description is as above. The note with it: 24 mM H2O2, 50 mM phosphate pH 7, 20% acetone; substrate-inhibition model.

Test [3] addresses T3, rCviUPO (native, non-mutated recombinant CviUPO) (Achaetomiella virescens, UniProt Z9FBJ6W4Y2, I60A/L63A/F87A/T157A, form not given).
T3 construct: codon-optimized gene in pET23a, expressed in E. coli as active cytosolic enzyme without purification tag; heme-thiolate (EC 1.11.2.1); purified by cation exchange and Superdex 75
T3 sequence (Z9FBJ6W4Y2 1-226 I60A/L63A/F87A/T157A): T1 sequence (Z9FBJ6W4Y2 1-226) with I60A, L63A, F87A, T157A
Described as above. To be noted: 24 mM H2O2, 50 mM phosphate pH 7, 20% acetone; substrate-inhibition model.

In test [4] the target is T3, rCviUPO (native, non-mutated recombinant CviUPO). Described as above. To be noted: substrate inhibition constant; 24 mM H2O2, 50 mM phosphate pH 7, 20% acetone.
Test [5] addresses T2, rCviUPO (native, non-mutated recombinant CviUPO). The description is as above. To be noted: substrate inhibition constant; 24 mM H2O2, 50 mM phosphate pH 7, 20% acetone.
In test [6] the target is T4, rCviUPO (native, non-mutated recombinant CviUPO) (Achaetomiella virescens, UniProt Z9FBJ6W4Y2, F87A/T157A, form not given).
T4 construct: codon-optimized gene in pET23a, expressed in E. coli as active cytosolic enzyme without purification tag; heme-thiolate (EC 1.11.2.1); purified by cation exchange and Superdex 75
T4 sequence (Z9FBJ6W4Y2 1-226 F87A/T157A): T1 sequence (Z9FBJ6W4Y2 1-226) with F87A, T157A
The test is described as above. The note with it: substrate inhibition constant; 24 mM H2O2, 50 mM phosphate pH 7, 20% acetone.

Test [7] has as its target T5, rCviUPO (native, non-mutated recombinant CviUPO) (Achaetomiella virescens, UniProt Z9FBJ6W4Y2, T157A).
T5 construct: codon-optimized gene in pET23a, expressed in E. coli as active cytosolic enzyme without purification tag; heme-thiolate (EC 1.11.2.1); purified by cation exchange and Superdex 75
T5 sequence (Z9FBJ6W4Y2 1-226 T157A): T1 sequence (Z9FBJ6W4Y2 1-226) with T157A
Described as above. The note with it: 24 mM H2O2, 50 mM phosphate pH 7, 20% acetone.

The target in test [8] is T4, rCviUPO (native, non-mutated recombinant CviUPO). The description is as above. To be noted: 24 mM H2O2, 50 mM phosphate pH 7, 20% acetone; substrate-inhibition model.
Test [9] has the same target. Briefly: spectrophotometric initial rates, […] nm. To be noted: 24 mM H2O2, 0.1 M acetate pH 3 or 5.

For the compound `CCCCCCCC/C=C\CCCCCCCC(=O)O` [C18:1, oleic acid], the Km came to 58.8 ± 6 µM in test [1]; 278 ± 49 µM in [2]; 399 ± 94.6 µM in [3]; 89 ± 16.4 µM in test [7]; 51.6 ± 5.4 µM in test [8]. For the same compound, the “ki” value in [4] amounted to 1360 ± 710 µM; in [5], 1120 ± 400 µM; in test [6], 2900 ± 610 µM.

`COc1ccc(CO)cc1OC` [veratryl alcohol]: the Km in test [9] turned out to be 15000 µM.
